In US11104648B2, “Pyrazole derivative” (Zhejiang Research Institute of Chemical Industry Co., Ltd., priority 2018, dated 2021):
Read-outs that look alike come from different tables or passages of the source.

Experiments:
Type in all cases: in vivo
[1] = tested on: Eggs of Tetranychus Cinnabarinus; experiment: Activity assay of eggs of Tetranychus cinnabarinus (spray method, ovicidal); conditions: Tetranychus cinnabarinus; for pest or weed control at 2 µg/mL: concentration 2 mg/L
Summary of the method: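 Ovicidal spray test: compound dissolved in DMF, diluted with 1‰ Tween 80 (DMF ≤10%), sprayed on eggs laid during 24 h by females on broad bean leaves. Culture at 26±2° C, 70–80% RH, 16 h photoperiod; non-hatched eggs scored as dead when blank control hatched; three repeats.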

[2] = tested on: Tetranychus cinnabarinus Nymphs; experiment: Activity assay of Tetranychus cinnabarinus nymphs (spray on broad bean leaves)
Summary of the method: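 Mortality, judged as no response to gentle touch, was scored 48 h after spraying Tetranychus cinnabarinus nymphs on broad bean leaves (eggs from females removed after 24 h). Test solutions: DMF-dissolved compound, ≤10% DMF, in 1‰ Tween 80; 26±2° C., 70%–80% RH, 16 h light; triplicate, blank control.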

[3] = tested on: adult Tetranychus cinnabarinus; experiment: Activity assay of adult Tetranychus cinnabarinus (whole-plant spray on bean seedlings); conditions: 48 h; for pest or weed control at 1.25 µg/mL: concentration 1.25 mg/L
Summary of the method: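 Whole plants sprayed after adult mite inoculation and initial census, using compound dissolved in DMF and made up with 1‰ Tween 80 water (DMF not above 10%). Mortality derived from survivor counts at 48 h after treatment. Each treatment run in triplicate.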

[4] = concentration 5 mg/L, spray, non-incubated eggs counted as dead, read-out: ovicidal activity
[5] = 48 h, concentration 2.5 mg/L, read-out: nymph-killing activity
[6] = concentration 2.5 mg/L, read-out: adult mite-killing activity
[7] = spray, read-out: ovicidal activity
[8] = eggs, parallel determination, read-out: Death rate (%)
[9] = 48 h, concentration 2 mg/L, read-out: nymph-killing activity
[10] = 48 h, nymphs, concentration 0.5 mg/L, parallel determination, read-out: Death rate (%)
[11] = adult mites, parallel determination, read-out: Death rate (%)
[12] = read-out: adult mite-killing activity
[13] = 48 h, read-out: nymph-killing activity
[14] = concentration 2.5 mg/L, 48 h, read-out: nymph-killing activity

Structure (SMILES) | pest or weed control at 5 µg/mL [1, 4] | pest or weed control at 2.5 µg/mL [2, 5] | pest or weed control at 2.5 µg/mL [3, 6] | also measured
CCCC(=O)OCO/C(=C(/C#N)c1ccc(C(C)(C)C)cc1)c1cc(C)nn1CC [Compound 228] | ≥ 90% | ≥ 95% | ≥ 90% | –
CCn1nc(C)cc1/C(OCOC(=O)C(C)C)=C(\C#N)c1ccc(C(C)(C)C)cc1 [Compound 229] | ≥ 90% | ≥ 95% | ≥ 90% | –
CCn1nc(C)cc1/C(OCOC(=O)C(C)(C)C)=C(\C#N)c1ccc(C(C)(C)C)cc1 [Compound 230] | ≥ 90% | ≥ 95% | ≥ 90% | pest or weed control at 2 µg/mL [1, 7]: ≥ 90%; pest or weed control at 2 µg/mL [1, 8]: 100%; pest or weed control at 2 µg/mL [2, 9]: ≥ 90%; pest or weed control at 0.5 µg/mL [2, 10]: 98%; pest or weed control at 1.25 µg/mL [3, 11]: 100%; pest or weed control at 1.25 µg/mL [3, 12]: ≥ 90%
CCCCC(=O)OCO/C(=C(/C#N)c1ccc(C(C)(C)C)cc1)c1cc(C)nn1CC [Compound 231] | ≥ 90% | ≥ 95% | ≥ 90% | –
CCn1nc(C)cc1/C(OCOC(=O)CC(C)C)=C(\C#N)c1ccc(C(C)(C)C)cc1 [Compound 232] | ≥ 90% | ≥ 95% | ≥ 90% | –
CCn1nc(C)cc1/C(OCOC(=O)COC)=C(\C#N)c1ccc(C(C)(C)C)cc1 [Compound 233] | ≥ 90% | ≥ 95% | ≥ 90% | –
CCn1nc(C)cc1/C(OCOC(=O)C1CC1)=C(\C#N)c1ccc(C(C)(C)C)cc1 [Compound 234] | ≥ 90% | ≥ 95% | ≥ 90% | pest or weed control at 2 µg/mL [1, 7]: ≥ 90%; pest or weed control at 2 µg/mL [1, 8]: 100%; pest or weed control at 2 µg/mL [2, 9]: ≥ 90%; pest or weed control at 0.5 µg/mL [2, 10]: 96%; pest or weed control at 1.25 µg/mL [3, 11]: 100%; pest or weed control at 1.25 µg/mL [3, 12]: ≥ 90%
CCn1nc(C)cc1/C(OCOC(=O)CSC)=C(\C#N)c1ccc(C(C)(C)C)cc1 [Compound 235] | ≥ 90% | ≥ 95% | ≥ 90% | –
CCn1nc(C)cc1/C(OCOC(=O)C1CCCCC1)=C(\C#N)c1ccc(C(C)(C)C)cc1 [Compound 236] | ≥ 90% | ≥ 95% | ≥ 90% | –
CCn1nc(C)cc1/C(OCOC(=O)CF)=C(\C#N)c1ccc(C(C)(C)C)cc1 [Compound 237] | – | – | – | pest or weed control at 5 µg/mL ([1]; read-out: ovicidal activity): ≥ 90%; pest or weed control at 2.5 µg/mL [2, 13]: ≥ 95%; pest or weed control at 2.5 µg/mL [3, 12]: ≥ 90%
CCn1nc(C)cc1/C(OCOC(=O)C(F)(F)F)=C(\C#N)c1ccc(C(C)(C)C)cc1 [Compound 238] | ≥ 90% | ≥ 95% | ≥ 90% | –
CCn1nc(C)cc1/C(OCOC(=O)c1ccccc1)=C(\C#N)c1ccc(C(C)(C)C)cc1 [Compound 239] | ≥ 90% | ≥ 95% | ≥ 90% | –
CCn1nc(C)cc1/C(OCOC(=O)Cc1ccccc1)=C(\C#N)c1ccc(C(C)(C)C)cc1 [Compound 240] | ≥ 90% | – | ≥ 90% | pest or weed control at 2.5 µg/mL [2, 14]: ≥ 95%
CCn1nc(C)cc1/C(OCOC(=O)C(C)(C)CC)=C(\C#N)c1ccc(C(C)(C)C)cc1 [Compound 241] | ≥ 90% | ≥ 95% | ≥ 90% | pest or weed control at 2 µg/mL [1, 8]: 100%; pest or weed control at 0.5 µg/mL [2, 10]: 100%; pest or weed control at 1.25 µg/mL [3, 11]: 100%
C=CC(=O)OCO/C(=C(/C#N)c1ccc(C(C)(C)C)cc1)c1cc(C)nn1CC [Compound 242] | ≥ 90% | ≥ 95% | ≥ 90% | –
CCn1nc(C)cc1/C(OC(C)OC(C)=O)=C(\C#N)c1ccc(C(C)(C)C)cc1 (stereo not drawn) [Compound 251] | ≥ 90% | ≥ 95% | ≥ 90% | pest or weed control at 2 µg/mL [1, 7]: ≥ 90%; pest or weed control at 2 µg/mL [1, 8]: 100%; pest or weed control at 2 µg/mL [2, 9]: ≥ 90%; pest or weed control at 0.5 µg/mL [2, 10]: 100%; pest or weed control at 1.25 µg/mL [3, 11]: 100%; pest or weed control at 1.25 µg/mL [3, 12]: ≥ 90%

Structure (SMILES) | pest or weed control at 5 µg/mL [1, 4] | pest or weed control at 2.5 µg/mL [2, 5] | pest or weed control at 2.5 µg/mL [3, 6] | also measured
CCC(=O)OC(C)O/C(=C(/C#N)c1ccc(C(C)(C)C)cc1)c1cc(C)nn1CC (stereo not drawn) [Compound 252] | ≥ 90% | ≥ 95% | ≥ 90% | pest or weed control at 2 µg/mL [1, 7]: ≥ 90%; pest or weed control at 2 µg/mL [1, 8]: 100%; pest or weed control at 2 µg/mL [2, 9]: ≥ 90%; pest or weed control at 0.5 µg/mL [2, 10]: 100%; pest or weed control at 1.25 µg/mL [3, 11]: 100%; pest or weed control at 1.25 µg/mL [3, 12]: ≥ 90%
CCCC(=O)OC(C)O/C(=C(/C#N)c1ccc(C(C)(C)C)cc1)c1cc(C)nn1CC (stereo not drawn) [Compound 253] | ≥ 90% | ≥ 95% | ≥ 90% | –
CCn1nc(C)cc1/C(OC(C)OC(=O)C(C)C)=C(\C#N)c1ccc(C(C)(C)C)cc1 (stereo not drawn) [Compound 254] | ≥ 90% | ≥ 95% | ≥ 90% | pest or weed control at 2 µg/mL [1, 7]: ≥ 90%; pest or weed control at 2 µg/mL [1, 8]: 99%; pest or weed control at 2 µg/mL [2, 9]: ≥ 90%; pest or weed control at 0.5 µg/mL [2, 10]: 96%; pest or weed control at 1.25 µg/mL [3, 11]: 97%; pest or weed control at 1.25 µg/mL [3, 12]: ≥ 90%
CCn1nc(C)cc1/C(OC(C)OC(=O)C(C)(C)C)=C(\C#N)c1ccc(C(C)(C)C)cc1 (stereo not drawn) [Compound 255] | ≥ 90% | ≥ 95% | ≥ 90% | pest or weed control at 2 µg/mL [1, 7]: ≥ 90%; pest or weed control at 2 µg/mL [1, 8]: 96%; pest or weed control at 2 µg/mL [2, 9]: ≥ 90%; pest or weed control at 0.5 µg/mL [2, 10]: 95%; pest or weed control at 1.25 µg/mL [3, 11]: 95%; pest or weed control at 1.25 µg/mL [3, 12]: ≥ 90%
CCCCC(=O)OC(C)O/C(=C(/C#N)c1ccc(C(C)(C)C)cc1)c1cc(C)nn1CC (stereo not drawn) [Compound 256] | ≥ 90% | ≥ 95% | ≥ 90% | –
CCn1nc(C)cc1/C(OC(C)OC(=O)COC)=C(\C#N)c1ccc(C(C)(C)C)cc1 (stereo not drawn) [Compound 258] | ≥ 90% | ≥ 95% | ≥ 90% | –
CCn1nc(C)cc1/C(OC(C)OC(=O)C1CC1)=C(\C#N)c1ccc(C(C)(C)C)cc1 (stereo not drawn) [Compound 259] | ≥ 90% | ≥ 95% | ≥ 90% | pest or weed control at 2 µg/mL [1, 7]: ≥ 90%; pest or weed control at 2 µg/mL [2, 9]: ≥ 90%; pest or weed control at 1.25 µg/mL [3, 12]: ≥ 90%
CCn1nc(C)cc1/C(OC(C)OC(=O)CSC)=C(\C#N)c1ccc(C(C)(C)C)cc1 (stereo not drawn) [Compound 260] | ≥ 90% | ≥ 95% | ≥ 90% | –
CCn1nc(C)cc1/C(OC(C)OC(=O)C1CCCCC1)=C(\C#N)c1ccc(C(C)(C)C)cc1 (stereo not drawn) [Compound 261] | ≥ 90% | ≥ 95% | ≥ 90% | –
CCn1nc(C)cc1/C(OC(C)OC(=O)CF)=C(\C#N)c1ccc(C(C)(C)C)cc1 (stereo not drawn) [Compound 262] | – | – | – | pest or weed control at 5 µg/mL ([1]; read-out: ovicidal activity): ≥ 90%; pest or weed control at 2.5 µg/mL [2, 13]: ≥ 95%; pest or weed control at 2.5 µg/mL [3, 12]: ≥ 90%
CCn1nc(C)cc1/C(OC(C)OC(=O)C(F)(F)F)=C(\C#N)c1ccc(C(C)(C)C)cc1 (stereo not drawn) [Compound 263] | ≥ 90% | ≥ 95% | ≥ 90% | –
CCn1nc(C)cc1/C(OC(C)OC(=O)c1ccccc1)=C(\C#N)c1ccc(C(C)(C)C)cc1 (stereo not drawn) [Compound 264] | ≥ 90% | ≥ 95% | ≥ 90% | –
CCn1nc(C)cc1/C(OC(C)OC(=O)Cc1ccccc1)=C(\C#N)c1ccc(C(C)(C)C)cc1 (stereo not drawn) [Compound 265] | ≥ 90% | – | ≥ 90% | pest or weed control at 2.5 µg/mL [2, 14]: ≥ 95%
CCn1nc(C)cc1/C(OC(C)OC(=O)C(C)(C)CC)=C(\C#N)c1ccc(C(C)(C)C)cc1 (stereo not drawn) [Compound 266] | ≥ 90% | ≥ 95% | ≥ 90% | –
C=CC(=O)OC(C)O/C(=C(/C#N)c1ccc(C(C)(C)C)cc1)c1cc(C)nn1CC (stereo not drawn) [Compound 267] | ≥ 90% | ≥ 95% | ≥ 90% | –
CCn1nc(C)c(Cl)c1/C(OCOC(C)=O)=C(\C#N)c1ccc(C(C)(C)C)cc1 [Compound 301] | ≥ 90% | ≥ 95% | ≥ 90% | pest or weed control at 2 µg/mL [1, 7]: ≥ 90%; pest or weed control at 2 µg/mL [1, 8]: 95%; pest or weed control at 2 µg/mL [2, 9]: ≥ 90%; pest or weed control at 0.5 µg/mL [2, 10]: 90%; pest or weed control at 1.25 µg/mL [3, 11]: 90%; pest or weed control at 1.25 µg/mL [3, 12]: ≥ 90%
